Experimental data taken from patent US9955692B2, “Pyrazoles for controlling invertebrate pests” (BASF SE, priority 2014, dated 2018).

Experiments:
Assay type in all cases: in vivo
[1] = system: Silverleaf whitefly (Bemisia argentifolii, adult); assay: Silverleaf whitefly test on sprayed cotton plants; conditions: 72 h, mortality assessed 3 days after treatment, read-out: mortality in comparison with untreated controls
Experimental: (§1) The active compounds were formulated in cyclohexanone as a 10,000 ppm solution supplied in 1.3 ml ABgene® tubes. These tubes were inserted into an automated electrostatic sprayer equipped with an atomizing nozzle and they served as stock solutions for which lower dilutions were made in 1:1 (vol:vol) water:aceton. A nonionic surfactant (Kinetic®) was included in the solution at a volume of 0.01% (v/v).
Cotton plants at the cotyledon stage (one plant per pot) were sprayed by an automated electrostatic plant sprayer equipped with an atomizing spray nozzle. The plants were dried in the sprayer fume hood and then removed from the sprayer. Each pot was placed into a plastic cup and 10 to 12 whitefly adults (approximately 3-5 days […]) were introduced. The insects were collected using an aspirator and 0.6 cm, nontoxic Tygon® tubing (R-3603) connected to a barrier pipette tip. The tip, containing the collected insects, was then gently inserted into the soil containing the treated plant, allowing insects to crawl out of the tip to reach the foliage for feeding. Cups were covered with a reusable screened lid (150-micron mesh polyester screen PeCap from Tetko, Inc.). […] Mortality was assessed 3 days after treatment, compared to untreated control plants.

[2] = system: Cowpea aphid (Aphis craccivora); assay: Cowpea aphid spray test on potted cowpea plants; conditions: population reduction assessed after 24, 72 and 120 hours, read-out: mortality in comparison with untreated controls
Experimental: If not otherwise specified the test solutions were prepared as follows:
The active compound was dissolved at the desired concentration in a mixture of 1:1 (vol:vol) distilled water:aceton. The test solution was prepared at the day of use and in general at concentrations of ppm (wt/vol).
Potted cowpea plants colonized with 100-150 aphids of various stages were sprayed after the pest population had been recorded. Population reduction was assessed after 24, 72, and 120 hours.

[3] = system: Cotton aphid (Aphis gossypii, mixed life stages); assay: Cotton aphid spray test on cotton plants; conditions: 120 h, aphid mortality determined after 5 days, read-out: mortality in comparison with untreated controls
Experimental: as §1
Cotton plants at the cotyledon stage were infested with aphids prior to treatment by placing a heavily infested leaf from the main aphid colony on top of each cotyledon. Aphids were allowed to transfer overnight to accomplish an infestation of 80-100 aphids per plant and the host leaf was removed. The infested plants were then sprayed by an automated electrostatic plant sprayer equipped with an atomizing spray nozzle. The plants were dried in the sprayer fume hood, removed from the sprayer, and then maintained in a growth room under fluorescent lighting in a 24-hr photoperiod at 25° C. and 20-40% relative humidity. Aphid mortality on the treated plants, relative to mortality on untreated control plants, was determined after 5 days.

[4] = system: Vetch aphid (Megoura viciae); assay: Vetch aphid bean leaf disk microtiter plate test; conditions: foliar, 144 h, 6 days, assessed on the basis of vital, reproduced aphids, read-out: mortality in comparison with untreated controls
Experimental: The active compounds were formulated in 3:1 (vol:vol) water:DMSO with different concentrations of formulated compounds.
Bean leaf disks were placed into microtiterplates filled with 0.8% agar-agar and 2.5 ppm OPUS™. The leaf disks were sprayed with 2.5 μl of the test solution and 5 to 8 adult aphids were placed into the microtiter plates which were then closed and kept at 23±1° C. and 50±5% relative humidity under fluorescent light for 6 days. Mortality was assessed on the basis of vital, reproduced aphids. Aphid mortality and fecundity was then visually assessed.

[5] = system: Green peach aphid (Myzus persicae); assay: Green peach aphid spray test on bell pepper plants; conditions: 120 h, aphid mortality determined after 5 days, read-out: mortality in comparison with untreated controls
Experimental: as §1
Bell pepper plants at the first true-leaf stage were infested prior to treatment by placing heavily infested leaves from the main colony on top of the treatment plants. Aphids were allowed to transfer overnight to accomplish an infestation of 30-50 aphids per plant and the host leaves were removed. The infested plants were then sprayed by an automated electrostatic plant sprayer equipped with an atomizing spray nozzle. The plants were dried in the sprayer fume hood, removed, and then maintained in a growth room under fluorescent lighting in a 24 hour photoperiod at 25° C. and 20-40% relative humidity. Aphid mortality on the treated plants, relative to mortality on untreated control plants, was determined after 5 days.

CCC(C)=NOCC(C)n1ncc(C(=O)N(CC)c2ccnnc2)c1C (single isomer, unassigned) [I-9, N-ethyl-5-methyl-1-[1-methyl-2-[1-methyl-propylideneamino]oxy-ethyl]-N-pyridazin-4-yl-pyrazole-4-carboxamide]
≥ 75%: mortality at 300 ppm [1] | mortality at 500 ppm [2] | mortality at 300 ppm [3] | mortality at 2500 ppm [4] | mortality at 300 ppm [5]
